Reference: patent US8759355B2, “Aryl pyrimidine derivatives, preparation methods and pharmaceutical uses thereof” (Institute of Pharmacology and Toxicology Academy of …, priority 2008, dated 2014)

Columns and labels:
human PPARδ = target: T1, human PPARδ (Homo sapiens, UniProt Q03181); experiment: Transfection determination: pM-hPPARδ/GAL4 chimeric receptor luciferase reporter, transient transfection in HEK-293 cells; assay type: cell-based; settings: 1 μM, luciferase read 24 hours after administration, GW501516 positive control
T1 construct: expressed in transfected cells; host or cells: HEK-293 cells (transient co-transfection)
T1 sequence (Q03181 211-439 limits assumed): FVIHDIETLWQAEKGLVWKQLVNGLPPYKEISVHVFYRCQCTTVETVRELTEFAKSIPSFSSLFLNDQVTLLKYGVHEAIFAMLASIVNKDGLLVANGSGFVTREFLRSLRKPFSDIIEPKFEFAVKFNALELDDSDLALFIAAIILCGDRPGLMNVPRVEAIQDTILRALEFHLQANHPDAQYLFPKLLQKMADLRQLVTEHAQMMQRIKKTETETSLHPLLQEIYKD
Text: Transfection Determination
The functional titration of the transient transfection of the compounds in HEK-293 cells was screened to determine their ability to activate PPAR subtype. Chimeric acceptor system was built in advance to compare relative transcription activity of acceptor subtype to same target gene and prevent the complexness of endogenous acceptor activation due to the explanation of results. Ligand binding domain of human PPARδ was fused to yeast transcription factor GAL4DNA binding domain, and then linked to expression carrier pM of mammal to build pM-hPPARδ/GAL4 plasmids. GAL4DNA binding region was connected to pB4-tk-luc to pB4-RES-tk-luc (a report gene of firefly luciferin enzyme containing 5 templates of GAL4DNA binding site). pRL-CMV-Rluc was used as internal standard to correct transfection efficiency and endogenous influence and reduce experimental error.
HEK-293 cells were grown in 48 wells plate, the density of cells was 2-4×10^4/well. The culture medium was 1640 of 10% defatted FCS free of phenol red and antibiotics. After 48 hours, the culture medium was changed as 1640 of 5% defatted FCS free of phenol red and antibiotics, and then pM-hPPARδ/GAL4, pB4-RES-tk-luc and pRL-CMV-Rluc plasmids were co-transfected in HEK-293 cells. The drug was administered after 24 hours, and the luminous intensity of luciferin enzyme was determined 24 hours after administration. The control was 0.2% DMSO.

melting point	Activation ability % (Activation of part of compounds for PPARδ) (human PPARδ)	Molecule
168.3 to 169.4 °C		O=C(O)CCc1ccc(OCc2ccnc(-c3ccc(Cl)cc3)n2)cc1 [Example 2, 3-{4-[2-(4-chlorophenyl)-pyrimidin-4-yl-methoxy]-phenyl}-propionic acid]
	88.35%	Cc1cc(SCc2ccnc(-c3ccc(Cl)cc3)n2)ccc1OCC(=O)O [example 9, {2-methyl-4-[2-(4-chlorophenyl)-pyrimidin-4-yl-methylthio]-phenoxy}-acetic acid]
	108.55%	Cc1cc(SCc2ccnc(-c3ccc(Br)cc3)n2)ccc1OCC(=O)O [example 10, {2-methyl-4-[2-(4-bromophenyl)-pyrimidin-4-yl-methylthio]-phenoxy}-acetic acid]
143.8 to 144.1 °C		O=C(O)CCc1ccc(OCc2ccnc(-c3c(F)cc(F)cc3F)n2)cc1 [Example 5, 3-{4-[2-(2,4,6-trifluorophenyl)-pyrimidin-4-yl-methoxy]-phenyl}-propionic acid]
159.3 to 160.2 °C	94.86%	Cc1cc(SCc2ccnc(-c3ccc(C(F)(F)F)cc3)n2)ccc1OCC(=O)O [example 7, {2-methyl-4-[2-(4-trifluoromethylphenyl)-pyrimidin-4-yl-methylthio]phenoxy}-acetic acid]
	119.51%	Cc1cc(SCc2ccnc(-c3ccc(Cl)cc3)n2)ccc1OC(C)(C)C(=O)O [example 17, 2-methyl-2-{2-methyl-4-[2-(4-chlorophenyl)-pyrimidin-4-yl-methylthio]-phenoxy}-propionic acid]
167.2 to 168 °C		O=C(O)CCc1ccc(OCc2ccnc(-c3ccc(F)cc3)n2)cc1 [Example 1, 3-{4-[2-(4-fluorophenyl)-pyrimidin-4-yl-methoxy]-phenyl}-propionic acid]
	144.86%	2-methyl-2-{2-methyl-4-[2-(4-trichloromethylphenyl)-pyrimidin-4-yl-methylthio]-phenoxy}-propionic acid [example 20]
139.5 to 140.4 °C	103.26%	Cc1cc(SCc2ccnc(-c3ccc(F)cc3)n2)ccc1OC(C)(C)C(=O)O [example 18, 2-methyl-2-{2-methyl-4-[2-(4-fluorophenyl)-pyrimidin-4-yl-methylthio]-phenoxy}-propionic acid]
168 to 168.8 °C		O=C(O)CCc1ccc(OCc2ccnc(-c3ccc(Br)cc3)n2)cc1 [Example 3, 3-{4-[2-(4-bromophenyl)-pyrimidin-4-yl-methoxy]-phenyl}-propionic acid]
	135.46%	Cc1cc(SCc2ccnc(-c3ccc(F)cc3)n2)ccc1OCC(=O)O [example 8, {2-methyl-4-[2-(4-fluorophenyl)-pyrimidin-4-yl-methylthio]-phenoxy}-acetic acid]
146.6 to 147.5 °C		O=C(O)CCc1ccc(OCc2ccnc(-c3ccc(C(F)(F)F)cc3)n2)cc1 [Example 4, 3-{4-[2-(4-trifluoromethylphenyl)-pyrimidin-4-yl-methoxy]-phenyl}-propionic acid]
